From PMC10205807, “Cross-species comparison in nonclinical pharmacokinetics of lenvatinib by a simple HPLC with ultraviolet detection” (Scientific Reports, 2023)

Legend:
[1] = PK study in dogs (intravenous and oral); type: in vivo
Experimental: Male beagle dogs purchased from Marshall Farm USA Inc. (NY, USA) were used for the PK study. Dogs were 16 months old when the PK study was conducted. The PK study was performed in a cross-over design with 8 days interval between the doses. Dogs were fasted a day before the PK study and feeding was resumed 4 h postdose. Dosing solution of lenvatinib used in the dog PK study was the same as that in the rodent PK studies. Lenvatinib was intravenously administered at the dose of 3 mg/kg via cephalic vein. Oral administration of lenvatinib was conducted at 3 mg/kg by using a tube with a disposable syringe, and then the dosing tube was given ca. 30 mL of water to flush the remaining dosing solution in the tube. The number of dogs at each dose was four. Approximately 0.5 mL of blood samples were serially obtained from the cephalic vein using a heparinized syringe at pre-dose, and at 5, 15 and 30 min, and 1, 2, 4, 6, 8, 12 and 24 h post-dose. Plasma sample preparation and sample storage were the same as those in the rodent PK studies. PK parameters of lenvatinib were estimated by model independent analysis using a WinNonlin program (Version 4.1, Pharsight Corporation, Mountain View, CA). The time to reach the maximum plasma concentration (Tmax) and the maximum plasma concentration (Cmax) values were obtained directly from the plasma concentration data. Terminal half-life (T1/2) was calculated by ln2/ke, where ke is the slope of the regression line that fits the portion of the terminal phase (at least three time points) in the log-linear concentration–time curve. AUC0–t and AUMC0–t, the area under the concentration–time curves and the area under the first moment curve, from time = zero to time = t, respectively, were calculated using the lenvatinib concentrations in plasma by the linear/log trapezoidal method. AUC0–inf was calculated by AUC0–t + Ct/ke, and AUMC0–inf was AUMC0–t + Ct × t/ke + Ct/(ke)^2, where Ct is the last measurable concentration at time = t. The plasma concentration at time zero for the intravenous dose was extrapolated, while zero was used for the oral doses. Mean residence time (MRT), total plasma clearance (CLtot) and the volume of distribution at steady state (Vdss) were calculated by AUMC0–inf/AUC0–inf, Dose/AUC0–inf and CLtot × MRT, respectively. Oral bioavailability (F) was estimated by comparing dose-normalized AUC0–inf after oral (AUC0–inf.po) and intravenous (AUC0–inf.iv) administration as follows: F (%) = (AUC0–inf.po/AUC0–inf.iv) × 100.

[2] = PK study in monkeys (intravenous and oral); type: in vivo, cynomolgus monkeys
Experimental: Male cynomolgus monkeys were supplied from Prestasi Fauna Nusantara Ltd. (Jakarta, Indonesia) and were housed at Shin Nippon Biomedical Laboratories, Ltd. The PK study was performed in a cross-over design with 7 days interval between the doses for monkeys aged 3–4 years old. Monkeys were fasted a day before the PK study and feeding was resumed 4 h postdose. Dosing solution of lenvatinib used was the same as that in the other animal PK studies. Lenvatinib was intravenously administered at the dose of 3 mg/kg via cephalic vein. In oral administration, lenvatinib at 3 mg/kg was dosed by using a nasogastric catheter, followed by giving 30 mL of water to flush the remaining dosing solution in the catheter. The number of monkeys at each dose was four. Approximately 0.5 mL of blood samples were serially collected from the femoral vein using a heparinized syringe at pre-dose, and at 5, 15 and 30 min, and 1, 2, 4, 6, 8, 12 and 24 h post-dose. Plasma sample preparation and sample storage were the same as those in the other PK studies.
PK parameters of lenvatinib were estimated by model independent analysis using a WinNonlin program (Version 4.1, Pharsight Corporation, Mountain View, CA). The time to reach the maximum plasma concentration (Tmax) and the maximum plasma concentration (Cmax) values were obtained directly from the plasma concentration data. Terminal half-life (T1/2) was calculated by ln2/ke, where ke is the slope of the regression line that fits the portion of the terminal phase (at least three time points) in the log-linear concentration–time curve. AUC0–t and AUMC0–t, the area under the concentration–time curves and the area under the first moment curve, from time = zero to time = t, respectively, were calculated using the lenvatinib concentrations in plasma by the linear/log trapezoidal method. AUC0–inf was calculated by AUC0–t + Ct/ke, and AUMC0–inf was AUMC0–t + Ct × t/ke + Ct/(ke)^2, where Ct is the last measurable concentration at time = t. The plasma concentration at time zero for the intravenous dose was extrapolated, while zero was used for the oral doses. Mean residence time (MRT), total plasma clearance (CLtot) and the volume of distribution at steady state (Vdss) were calculated by AUMC0–inf/AUC0–inf, Dose/AUC0–inf and CLtot × MRT, respectively. Oral bioavailability (F) was estimated by comparing dose-normalized AUC0–inf after oral (AUC0–inf.po) and intravenous (AUC0–inf.iv) administration as follows: F (%) = (AUC0–inf.po/AUC0–inf.iv) × 100.

plasma protein = assay: in vitro plasma protein binding, dogs; type: in vitro ADME
[3] = male, beagle, dog, plasma, intravenous 3 mg/kg
[4] = male, beagle, dog, plasma, oral 3 mg/kg
[5] = male, cynomolgus monkey, plasma, intravenous 3 mg/kg
[6] = male, cynomolgus monkey, plasma, oral 3 mg/kg
[7] = male, cynomolgus, cynomolgus monkey, plasma, oral 3 mg/kg

## COc1cc2nccc(Oc3ccc(NC(=O)NC4CC4)c(Cl)c3)c2cc1C(N)=O [lenvatinib, Lenvatinib]
[1]; estimated from oral PK, Fa and Fg assumed unity, BW 10 kg
  CLint (hepatic intrinsic clearance): 61,500 mL/h
[1]; [3]
  AUC(0-inf): 8420 ± 927 ng·h/mL
  MRT: 4.34 ± 0.36 h
  half-life: 5.27 ± 0.83 h
[1]; male, beagle, dog, plasma, intravenous 3 mg/kg, extrapolated
  C0: 2440 ± 303 ng/mL
[1]; male, beagle, dog, plasma, intravenous 3 mg/kg, read-out: CLtot (converted)
  clearance: 6.13 mL/min/kg
[1]; male, beagle, dog, plasma, intravenous 3 mg/kg, read-out: Vdss
  Vd: 1.61 ± 0.249 L/kg
[1]; [4]
  AUC(0-inf): 5480 ± 1370 ng·h/mL
  Cmax: 1270 ± 302 ng/mL
  MRT: 4.81 ± 0.25 h
  half-life: 4.76 ± 0.94 h
[1]; male, beagle, dog, plasma, oral 3 mg/kg vs intravenous 3 mg/kg, read-out: F (oral bioavailability)
  bioavailability: 70.4 ± 23.1%
[1]; male, beagle, dog, plasma, oral 3 mg/kg, median (range)
  Tmax: 2 h
[2]; estimated from oral PK, Fa and Fg assumed unity, BW 5 kg
  CLint (hepatic intrinsic clearance): 37,063 mL/h
[2]; [5]
  MRT: 3.32 ± 0.15 h
  half-life: 4.28 ± 0.34 h
[2]; [6]
  Cmax: 2500 ± 450 ng/mL
  MRT: 4.23 ± 0.31 h
[2]; male, cynomolgus monkey, plasma, oral 3 mg/kg, median (range)
  Tmax: 2 h
[2]; male, cynomolgus, cynomolgus monkey, plasma, intravenous 3 mg/kg
  AUC(0-inf): 12900 ± 1060 ng·h/mL
[2]; male, cynomolgus, cynomolgus monkey, plasma, intravenous 3 mg/kg, extrapolated
  C0: 5170 ± 949 ng/mL
[2]; male, cynomolgus, cynomolgus monkey, plasma, intravenous 3 mg/kg, read-out: CLtot (converted)
  clearance: 3.97 mL/min/kg
[2]; male, cynomolgus, cynomolgus monkey, plasma, intravenous 3 mg/kg, read-out: Vdss
  Vd: 0.794 ± 0.0882 L/kg
[2]; [7]
  AUC(0-inf): 10300 ± 1510 ng·h/mL
  half-life: 4.07 ± 0.29 h
[2]; male, cynomolgus, cynomolgus monkey, plasma, oral 3 mg/kg vs intravenous 3 mg/kg, read-out: F (oral bioavailability)
  bioavailability: 78.4 ± 5.4%
Plasma protein; dog plasma, 0.3 μg/mL
  fraction unbound at 0.3 μg/mL: 0.084
Plasma protein; dog, plasma, dogs, 0.3–30 μg/mL, read-out: average fp (unbound fraction in plasma)
  fraction unbound: 0.089
